Test results: patent EP0292365A2, “4-Amino-5,8-quinazolindione derivatives, process for their preparation and pharmaceutical compositions containing them” (CENTRE NATIONAL DE LA RECHERCHE SCIENTIFIQUE, priority 1987, dated 1988)
pIC50: −log10 of the molar value. Like-named read-outs stand apart in the source and are kept apart here.

Experiments:
[1] = system: cellules leucémiques L 1210; test: In vitro cytotoxicity: growth inhibition of L 1210 leukemia cells (Coulter count); assay type: cell-based, souris; details: Mus musculus, L1210, 48 h, read-out: CI50 après 48 h de culture
Protocol: La détermination de la cytotoxicité in vitro sur les cellules leucémiques L 1210 est la méthode utilisée pour sélectionner les molécules potentiellement antitumorales. Le protocole mis en oeuvre est le suivant :
les cellules leucématiques L 1210 adaptées à la culture en suspension stationnaire sont entretenues dans du milieu RPMI 1640 (commercialisé par Seromed) additionné de 20 % de sérum de cheval décomplémenté, L-glutamine (2 mM), pénicilline (200 U/ml), streptomycine (50µg/ml) et cultivées à 37° C dans une atmosphère à 5 % de C02. Les cultures testées par la méthode de BARILE (BARILE M.F. Mycoplasmal contamination of cell culture, in Contamination in Tissue Culture, J. Fogh (ed.) Acad. Press, 132-156, 1973) sont exemptes de contaminations bactériennes et mycoplasmiques.
Pour les expérimentations, les cellules sont ensemencées à la concentration de 0,8.10^5 cellules/ml et cultivées par 2 ml dans des flacons de 15 ml. Les substances à étudier sont dissoutes dans du DMSO (1 % final) dont on a préalablement vérifié l'innocuité. Des quantités croissantes de produit à tester sont ajoutées au temps 0 et des numérations sont faites au compteur COULTER après 24 et 48 heures de culture. Des séries de contrôle sont effectuées avec des quantités de DMSO équivalentes à celles des séries traitées.
Le temps de doublement des cellules témoins est approximativement de 12 heures.
La cytotoxicité est déterminée d'après l'inhibition de croissance des cellules L 1210, calculée par rapport aux témoins correspondants selon la formule : [formula] • T = concentration de cellules non traitées, • t = concentration de cellules traitées.
La concentration de produit qui diminue la croissance cellulaire de 50 % (Clso) est calculée d'après la méthode des régressions linéaires en coordonnées log-probit.
Lorsque la Cl50 est voisine de la micromolarité (égale ou inférieure à 1 µM), il existe une présomption d'activité antitumorale et les essais in vivo indiqués ci-après sont effectués.
A titre d'exemple, la CI50 mesurée 48 heures après traitement des cellules par les composés de l'invention testés est la suivante : […]

Leucémie P388 = assay type: in vivo, souris DBA/2; details: for Animaux survivants/ animaux traités / T/C / ΔP (J5-J1): P388, greffe ip (10^6 cel), ip J1, suspension dans le Klucel; for activité antitumorale comparée: compared with the quinazolinedione of J. Med. Chem. 1983, 26, 1715-1719
From the text: Afin de tester l'activité antitumorale des composés décrits plus haut, on a utilisé les leucémies murines P388 et L1210, ainsi que le mélanome murin B16. La leucémie P388 est considère comme très sensible et permet une première sélection. D'autre part, une substance ayant une grande activité sur la leucémie L1210 a une grande chance d'être active en clinique humaine (J.M. Venditti; Relevance of transplantable animal tumor systems to the Selection of new agents for clinical trial in pharmacological basis of cancer chemotherapy. The University of Texas ed. Williams and Wilkins, publ. 1975, Baltimore USA).
Cette étude a été réalisée sur 1, 2 ou 3 tumeurs murines expérimentales selon le schéma suivant :
Les produits en solution dans l'eau ou en suspension dans du Klucel sont administrés par voie intrapéritonéale 24 heures après la greffe des cellules tumorales (10 animaux par série), soit en injection unique (J1), soit pendant 9 jours consécutifs (Ji-9). Les morts sont relevés chaque jour à la même heure. La comparaison du temps médian de survie des souris témoins (C) et des souris traitées (T) permet d'apprécier l'activité antitumorale du produit. On adopte comme critère d'activité minimale la valeur de T/C supérieure ou égale à 125 % conformément aux critères établis par GERAN et par l'O.M.S. (Réf. GERAN R.I., GREENBERG N.H., MACDONALD M.M., SCHUMACHER A.M. and ABBOTT B.J. Protocols for screening chemical agents and natural products against animal tumors and other biological systems. Cancer Chemother. Rep. Part 3, 3, 1-103 (1972)).
Lorsque le composé est actif sur plusieurs tumeurs, son administration par d'autres voies que la voie intrapéritonéale (i.p.) est envisagée : orale (p.o) et intraveineuse (i.v). Les résultats des essais effectués à l'aide du composé 63 sont rassemblés dans le tableau IV ci-après.
Les résultats des essais effectués à l'aide des composés de l'invention n° 57 et 59 sont rassemblés dans le tableau IV Bis ci-après.
Dans les tableaux IV et IV Bis, P représentent la variation de poids entre J1 et J5 des animaux traités; lorsque P est supérieure à environ 4 g, cela signifie que la dose à laquelle le composé a été testé est toxique.

[2] = Determination of toxicity (DLo), single intraperitoneal dose; assay type: in vivo; details: voie intrapéritonéale, dose unique, souris Swiss, suivies pendant un mois
From the text: Ils sont tous administrés, par voie intrapéritonéale (ip), à des souris Swiss de 22 ± 2 g, à doses uniques exprimées en mg/kg de poids corporel. Les animaux sont suivis pendant un mois. La mortalité et les signes de toxicité sont relevés. On détermine ainsi la DLoqui sera la dose maximale utilisée pour la détermination de l'activité antitumorale.

[3] = Solubility in water (statement); assay type: physicochemical
sarcome 180 = details: J. Med. Chem. 1983, 26, pp. 1715-1719; cited from earlier work
leucémie L1210 = details: J. Med. Chem. 1983, 26, pp. 1715-1719; cited from earlier work
leucémie murine P388 = details: J. Med. Chem. 1983, 26, pp. 1715-1719; cited from earlier work
[4] = J. Med. Chem. 1983, 26, pp. 1715-1719; cited from earlier work
mélanocarcinome B16 = details: J. Med. Chem. 1983, 26, pp. 1715-1719; cited from earlier work
cellules L1210 = details: J. Med. Chem. 1983, 26, pp. 1715-1719; cited from earlier work

| Structure (SMILES) | pIC50 [1] | Animaux survivants/ animaux traités (Leucémie P388; 5 mg/kg) | T/C (Leucémie P388; 5 mg/kg) [%] | ΔP (J5-J1) (Leucémie P388; 5 mg/kg) | Animaux survivants/ animaux traités (Leucémie P388; 2,5 mg/kg) | T/C (Leucémie P388; 2,5 mg/kg) [%] | ΔP (J5-J1) (Leucémie P388; 2,5 mg/kg) | activité antitumorale comparée (Leucémie P388) | DLo [2] | solubilité dans l'eau [3] | other results |
| --- | --- | --- | --- | --- | --- | --- | --- | --- | --- | --- | --- |
| O=C1C(N2CC2)=C(N2CC2)C(=O)c2c(NCCCCCCCNc3ncnc4c3C(=O)C(N3CC3)=C(N3CC3)C4=O)ncnc21 [compound 54] | 8.43 | – | – | – | – | – | – | – | – | – | – |
| O=C1C(N2CC2)=C(N2CC2)C(=O)c2c(NCCOCCOCCNc3ncnc4c3C(=O)C(N3CC3)=C(N3CC3)C4=O)ncnc21 [compound 59] | 7.74 | 10/10 | 133 | -1,1 g | 10/10 | 115 | -0,5 g | nettement plus actifs | ~10 mg/kg | insolubles dans l'eau | Animaux survivants/ animaux traités (Leucémie P388; 10 mg/kg): 10/10; T/C (Leucémie P388; 10 mg/kg): 135%; ΔP (J5-J1) (Leucémie P388; 10 mg/kg): -1,8 g; Animaux survivants/ animaux traités (Leucémie P388; 15 mg/kg): 07/10; T/C (Leucémie P388; 15 mg/kg): 145%; ΔP (J5-J1) (Leucémie P388; 15 mg/kg): -4,1 g |
| CN(CCCNc1ncnc2c1C(=O)C(N1CC1)=C(N1CC1)C2=O)CCCNc1ncnc2c1C(=O)C(N1CC1)=C(N1CC1)C2=O [compound 57] | 8.32 | 10/10 | 168 | -4,2 g | 10/10 | 150 | -1,8 g | nettement plus actifs | ~2,5 mg/kg | insolubles dans l'eau | Animaux survivants/ animaux traités (Leucémie P388; 1,25 mg/kg): 06/06; T/C (Leucémie P388; 1,25 mg/kg): 137%; ΔP (J5-J1) (Leucémie P388; 1,25 mg/kg): -1,0 g |
| O=C1C(N2CC2)=C(N2CC2)C(=O)c2ncncc21 [bis(aziridinyl-1)-6,7 quinazolinedione-5,8] | – | – | – | – | – | – | – | – | – | – | activité antitumorale in vivo sur le sarcome 180 (sarcome 180): ne présente pas d'activité antitumorale significative; activité antitumorale in vivo sur la leucémie L1210 (leucémie L1210): ne présente pas d'activité antitumorale significative; activité antitumorale in vivo sur la leucémie murine P388 (leucémie murine P388): une certaine activité antitumorale; activité par voie orale [4]: n'est pas actif; activité in vivo sur le mélanocarcinome B16 (mélanocarcinome B16): très faible activité; cytotoxicité in vitro sur les cellules L1210 (cellules L1210): cytotoxique |
| COC1=CC(=O)c2ncnc(NCCCN3CCC(C4CCN(CCCNc5ncnc6c5C(=O)C(OC)=CC6=O)CC4)CC3)c2C1=O [compound 70] | – | – | – | – | – | – | – | – | – | – | pIC50 ([1]; L 1210 cells, 48 heures après traitement): 5.89 |
